Assay results published in publication PMC6680510, “Benzotriazine Di-Oxide Prodrugs for Exploiting Hypoxia and Low Extracellular pH in Tumors” (Molecules, 2019).
Several values for one entry are separate records, joined by “and”; a condition that tells them apart may be missing. Identical values can stand only once. Like-named read-outs stand apart in the source and are kept apart here.

Assays:
[1] = test system: reduction of BTOs to their N-1-oxides by SiHa cells; experiment: WST-1 inhibition of anoxic reduction of BTOs to N-1-oxides; type: cell-based
Source text: One possibility for this is that the BTO acids are reduced to the 1-oxides by an extracellular one-electron reductase. To test this, we evaluated whether the cell-excluded disulfonic acid tetrazolium salt WST-1 could compete with BTO acids for one-electron reduction. WST-1 is a known electron acceptor for one-electron reduction by the plasma membrane electron transport system (PMET) and is widely used as a cell viability assay, although the latter application uses 1-methoxyphenazine methylsulphate (mPMS) as an electron transfer intermediate. Given the possibility that mPMS could cross the plasma membrane itself, we used WST-1 without mPMS to ensure that the electron donor is a cell surface reductase.
The log-phase cells were trypsinized and the pellets were transferred to the anaerobic chamber and resuspended in equilibrated αMEM + 5% FBS at pH 7.4 and plated (10^5 cells in 100 μL/well for experiments with WST1, otherwise 2 × 10^5 cells/well). After incubation at 37 °C for 2 h, 20 μL was replaced with the anoxic medium containing 5× the final concentrations of test compounds with or without WST-1 (1 mM, Toronto Research Chemicals). A cell-free medium used as a control to check for reduction in the anoxic medium. Cultures were mixed gently, incubated for a further 2 h, then the extracellular medium was removed and 200 μL of ice-cold MeOH was added to the monolayers. The MeOH extract was transferred to the medium sample (thus combining the intracellular and extracellular samples). The pooled samples (combining the intracellular and extracellular samples) were removed from anoxic chamber, then centrifuged (13000g, 30 s) and frozen for subsequent HPLC analysis. Cell-free wells were used for single-point calibration of the parent compounds and 1-oxides in each experiment.
Figure 8 Inhibition of reduction of BTOs to their N-1-oxides by the cell-excluded electron acceptor WST-1. SiHa cells were seeded in 96-well plates at 10^6 cells/mL and exposed to the compounds (50 μM) with the indicated concentrations of WST-1 under anoxia for 2 h. Total (pooled intracellular and extracellular) amounts of the 1-oxide metabolites were determined by HPLC. Values are mean and SEM for two experiments with triplicate cultures at each concentration.

[2] = test system: SiHa cells; experiment: IC50 assay (inhibition of proliferation, 4 h exposure, SRB)
Procedure: Cells were seeded in 96-well plates (SiHa or FaDu 1500 cells/well, UT-SCC-74B 800 cells/well) in 100 μL. After incubation for 2 h, the drugs were added in 50 μL of the same titrated medium at 3× the final concentration to duplicate the wells. After a further 4 h the plates were checked for drug precipitation using a phase contrast microscope, then drugs were removed by aspirating and washing with the standard (pH 7.4) medium, then aspirating again and adding 150 μL of the medium. Cultures were then grown for 5 days before staining with sulphorhodamine B and measuring absorbance, with the estimation of IC50 values using 4-parameter logistic regression, as previously carried out.
The medium and plasticware was equilibrated in the chamber for 3 days prior to use. In the anoxia experiments, FaDu cells were plated in poly-L-lysine coated plates (Corning Cat # 356461) to improve attachment.
Cells were subsequently grown under standard cell culture conditions (oxia, pHe 7.4) for 5 days before staining with sulforhodamine B (SRB). […] (B) SN30000 (2). (C) BTO acid 4a. Values are means and errors are ranges for duplicate cultures in a single experiment. Fitted curves are 4-parameter logistic regressions. PCR = pH cytotoxicity ratio. ACR = anoxia cytotoxicity ratio. TMR = tumor microenvironment ratio.

[3] = test system: FaDu cells; experiment: as above; type: cell-based
[4] = Solubility in AlphaMEM + 5% FBS, pH 7.4; details: culture medium (AlphaMEM + 5% FBS), pH 7.4, plasma or biological fluid
[5] = One-electron reduction potentials by pulse radiolysis; type: physicochemical; details: pH 7.0, equilibrium with redox indicator shown in square brackets
Procedure: One-electron reduction potentials (E^0′) were determined from the redox equilibria with methylviologen, MV^2+, (E^0′ = […], [34]), dimethyldiquat, V21^2+, (E^0′ = […], [35]), or triquat, TQ^2+, (E^0′ = −548 ± 7 mV [34]). […] Substituting the 3-alkanoic sidechain with the 3-aminoalkanoic sidechain on the BTO 1,4-dioxide lowers the E^0′, as does the addition of the cyclopentane ring. The combined effect is seen for 10a, where the E^0′ value is −565 mV, which is expected to be too low for significant bioreduction under hypoxia.
Time-resolved optical absorption and kinetic studies were carried out using the University of Auckland’s 4 MeV linear accelerator, which has been previously described. The one-electron reduction potentials of the compounds (A) and couple E^0′(A/A^−), versus normal hydrogen electrode, were determined at pH 7.0 (2.5 mM phosphate) by establishing redox equilibria within 50 μs between three mixtures of one-electron reduced A and the viologen reference compounds, MV^2+, TQ^2+ and V21^2+. The determined equilibrium constants were used to calculate the ΔE values using the Nernst equation, correcting for ionic strength effects, as described in the literature.

[6] = test system: SiHa cells
Procedure: In these experiments, cell pellets were collected by centrifugation and ^3H-mannitol was used as a cell-excluded marker to enable correction for the entrapped extracellular medium.
Log-phase cultures were dissociated with trypsin/EDTA, followed by the addition of the medium with DNAase I (Sigma DN-25) at 100 μg/mL for 5 min at 37 °C to minimize clumping. The cell pellets were collected by centrifugation and resuspended in αMEM with 5% FBS at pH 7.4 or 6.5 to 2 × 10^6 cells/mL. Samples (12 mL) were equilibrated with magnetic stirring at 37 °C under flowing humidified 5% CO2/air or N2 (50–100 mL/min), as previously described [86]. After equilibration for 60 min, the compounds were added in 50 μL of DMSO. The samples (5 mL) were withdrawn 5 and 60 min later, where the cell pellets were then collected by centrifugation and 4 mL of the supernatant was discarded. The pellets were resuspended in the remaining 1 mL, transferred to microcentrifuge tubes containing 7 μL ^3H-mannitol (740 GBq/mmol, American Radiolabeled Chemicals Inc., St. Louis, MO) as an extracellular marker, and then centrifuged (11,000g × 30s). The supernatant was removed and frozen at −80 °C (extracellular samples) and the tubes were centrifuged again, and any remaining medium was carefully removed. Ice-cold MeOH (80 μL) was added to the pellets which were disrupted by pipetting and stored at −80 °C (intracellular samples). When these were thawed for HPLC analysis (Section 4.12), the volume of extracellular water trapped in the pellets was determined by the scintillation counting (PerkinElmer Tri-Carb B2910TR Liquid Scintillation) of 25 μL of each extracellular and intracellular sample in 3 mL of Emulsifier-Safe™ scintillation cocktail (PerkinElmer). The extracellular volume in each intracellular sample was used to correct the intracellular drug concentration as previously described [87].
The samples were analyzed using an Agilent 1200 HPLC with a diode array absorbance detector and autosampler maintained at 4 °C (Agilent Technologies). The frozen samples were thawed, then centrifuged (11,000g × 5 min), and then extracellular samples were injected directly (typically 20 μL), while for the intracellular samples 30 μL was mixed 1:1 with αMEM and 50 μL was injected. […] All calibration curves were linear (R^2 > 0.999). The column was an Agilent ZORBAX Eclipse (XDB-C18, 5u, 2.1 × 150 mm, Agilent Technologies) with a flow rate of 0.4 mL/min. For SN30000 (2), the mobile phase was a mixture of 80% MeCN/water v/v (A), and a 45 mM formate buffer at a pH 4.5, eluting with a linear gradient of 5–100% A over 18 min. The same method was used for the BTO acids, except for 4a, where the aqueous mobile phase pH was reduced to 3.5.
Values are mean and SEM for 3 replicates. ND: Not detected.

[7] = Homo sapiens, SiHa, 4 h, read-out: Anoxic IC50, SiHa, pHe 6.5, 4 h, anoxic
[8] = Homo sapiens, SiHa, 4 h, read-out: Anoxic IC50, SiHa, pHe 7.4, 4 h, anoxic
[9] = Homo sapiens, SiHa, 4 h, read-out: Oxic IC50, SiHa, pHe 6.5, 4 h, oxic
[10] = Homo sapiens, SiHa, 4 h, read-out: Oxic IC50, SiHa, pHe 7.4, 4 h, oxic
[11] = Homo sapiens, 4 h, pHe 6.5, 4 h, anoxic, read-out: Anoxic IC50
[12] = Homo sapiens, 4 h, pHe 6.5, 4 h, oxic, read-out: Oxic IC50
[13] = Homo sapiens, 4 h, pHe 7.4, 4 h, anoxic, read-out: Anoxic IC50
[14] = Homo sapiens, 4 h, pHe 7.4, 4 h, oxic, read-out: Oxic IC50
[15] = read-out: Anoxic IC50, SiHa, pHe 6.5, 4 h, anoxic
[16] = read-out: Anoxic IC50, SiHa, pHe 7.4, 4 h, anoxic
[17] = read-out: Oxic IC50, SiHa, pHe 6.5, 4 h, oxic
[18] = read-out: Oxic IC50, SiHa, pHe 7.4, 4 h, oxic
[19] = pHe 6.5, 4 h, anoxic, read-out: Anoxic IC50
[20] = pHe 6.5, 4 h, oxic, read-out: Oxic IC50
[21] = pHe 7.4, 4 h, anoxic, read-out: Anoxic IC50
[22] = pHe 7.4, 4 h, oxic, read-out: Oxic IC50

Compound	IC50 [2, 7] [µM]	IC50 [2, 8] [µM]	IC50 [2, 9] [µM]	IC50 [2, 10] [µM]	TMR (overall TME ratio = oxic IC50 pHe 7.4/anoxic IC50 pHe 6.5) ([2]; SiHa)	PCR Anoxic (IC50 at pHe 7.4/IC50 at pHe 6.5) ([2]; SiHa, anoxic)	ACR (anoxic cytotoxicity ratio = oxic IC50/anoxic IC50) ([2]; SiHa, pHe 6.5)	ACR (anoxic cytotoxicity ratio = oxic IC50/anoxic IC50) ([2]; SiHa, pHe 7.4)	TMR (oxic IC50 pHe 7.4/anoxic IC50 pHe 6.5) [3]	IC50 [3, 11] [µM]	IC50 [3, 12] [µM]	IC50 [3, 13] [µM]	IC50 [3, 14] [µM]	PCR Anoxic (IC50 at pHe 7.4/IC50 at pHe 6.5) ([3]; anoxic)	ACR (oxic IC50/anoxic IC50) ([3]; pHe 6.5)	ACR (oxic IC50/anoxic IC50) ([3]; pHe 7.4)	E^0′ one-electron reduction potential [5]	PCR oxic (IC50 at pHe 7.4/IC50 at pHe 6.5) ([2]; SiHa, oxic)	melting point	further results
O=[N+]([O-])c1ccc(-[n+]2nc(-c3ccc(S(=O)(=O)O)cc3S(=O)(=O)[O-])nn2-c2ccc(I)cc2)cc1 [WST-1]	–	–	–	–	–	–	–	–	–	–	–	–	–	–	–	–	–	–	–	IC50 ([1]; read-out: IC50 for inhibition of anoxic reduction of 4a to N-1-oxide 15a, substrate 4a 50 μM, anoxia 2 h): 7.05 µM; IC50 ([1]; read-out: IC50 for inhibition of anoxic reduction of 7a to N-1-oxide 15d, substrate 7a 50 μM, anoxia 2 h): 14.3 µM; IC50 ([1]; substrate SN30000 50 μM, anoxia 2 h, read-out: IC50 for inhibition of metabolic reduction of SN30000): > 1000 µM; IC50 ([1]; substrate TPZ 50 μM, anoxia 2 h, read-out: IC50 for inhibition of metabolic reduction of TPZ): > 1000 µM
O=C(O)CNc1n[n+]([O-])c2ccccc2[n+]1[O-] [Compound 8a, 3-((Carboxymethyl)amino)benzo[e][1,2,4]triazine 1,4-dioxide]	135 ± 18	154 ± 26	> 2000	> 2000	>15	1.14 ± 0.25	>15	>13	>6.9	290 ± 48	1450 ± 268	289 ± 25	> 2000	1.0 ± 0.19	4.99 ± 1.24	>6.9	−470 ± 9 [MV^2+] mV	–	–	PCR oxic (IC50 at pHe 7.4/IC50 at pHe 6.5) ([3]; oxic): >1; solubility ([4]; thermodynamic from solid): 8700 µM
3-((2-Carboxyethyl)amino)-7,8-dihydro-6H-indeno[5,6-e][1,2,4]triazine 1,4-Dioxide [Compound 11a]	–	–	–	–	15.9 ± 1.6	4.94 ± 1.14	–	–	>1	–	–	–	–	>1	> 1	–	−481 ± 10 [MV^2+] mV	4.18 ± 0.21	–	IC50 [2, 15]: 145 ± 13 µM; IC50 [2, 16]: 714 ± 152 µM; IC50 [2, 17]: 551 ± 16 µM; IC50 [2, 18]: 2300 ± 92 µM; IC50 [3, 19]: 3810 ± 390 µM; IC50 [3, 20]: > 4000 µM; IC50 [3, 21]: > 4000 µM; IC50 [3, 22]: > 4000 µM; Ci ratio (Ci at pHe 6.5/Ci at pHe 7.4) [6]: 4.4 ± 1.2 fold; Ci/Ce, pHe 6.5 Obs 5 min [6]: 0.17 ± 0.02; Ci/Ce, pHe 6.5 Obs 60 min [6]: 0.29 ± 0.02; Ci/Ce, pHe 7.4 Obs 5 min [6]: <0.1; Ci/Ce, pHe 7.4 Obs 60 min [6]: <0.1
COC(=O)CNc1n[n+]([O-])c2cc3c(cc2[n+]1[O-])CCC3 [Compound 9b, 3-((2-Methoxy-2-oxoethyl)amino)-7,8-dihydro-6H-indeno[5,6-e][1,2,4]triazine 1,4-dioxide]	10.9 ± 1.42	8.08 ± 2.23	42.2 ± 5.7	> 53	>4.6	0.74 ± 0.23	3.87 ±0.73	>6.5	>1.4	37.7 ± 8	> 53	46.9 ± 3	> 53	1.24 ± 0.28	>1	>1	–	>1.2	171 to 178 °C	solubility ([4]; thermodynamic from solid): 70 µM
Cc1ccc2c(c1)[n+]([O-])c(CCC(=O)O)n[n+]2[O-] [Compound 6a, 3-(2-Carboxyethyl)-6-methylbenzo[e][1,2,4]triazine 1,4-Dioxide]	364 ± 47	1180 ± 190	> 1000	> 1000	>2.7	3.24 ± 0.67	>2.7	–	>5	205 ± 25	> 1000	> 1000	> 1000	>5	>5	–	–	–	173 to 175 °C (dec.)	solubility ([4]; kinetic from dmso stock): > 960 µM
Cc1ccc2c(c1)[n+]([O-])nc(CCC(=O)O)[n+]2[O-] [Compound 5a, 3-(2-Carboxyethyl)-7-methylbenzo[e][1,2,4]triazine 1,4-Dioxide]	225 ± 38	542 ± 113	449 ± 188	> 3000	>13	2.41 ± 0.64	1.99 ± 0.90	>5.5	13.9 ± 1.7	203 ± 18	1100 ± 110	924 ± 64	2770 ± 690	4.29 ± 0.55	5.49 ± 0.26	3.00 ± 0.22	–	>6.7	181 to 183 °C (dec.)	PCR oxic (IC50 at pHe 7.4/IC50 at pHe 6.5) ([3]; oxic): 2.55 ± 0.32; solubility ([4]; kinetic from dmso stock): > 980 µM
O=C(O)CCCNc1n[n+]([O-])c2ccccc2[n+]1[O-] [Compound 10a, 3-((3-Carboxypropyl)amino)benzo[e][1,2,4]triazine 1,4-Dioxide]	–	–	–	–	>4.8	>4.8	–	–	>4	–	–	–	–	1.58 ± 0.37	>4	>3	−565 mV and −565 ± 8 [TQ^2+] mV	–	–	ACR (anoxic cytotoxicity ratio = oxic IC50/anoxic IC50) [2]: >4.8; IC50 [2, 15]: 416 ± 57 µM; IC50 [2, 16]: > 2000 µM; IC50 [2, 17]: > 2000 µM; IC50 [2, 18]: > 2000 µM; IC50 [3, 19]: 543 ± 126 µM; IC50 [3, 20]: > 2000 µM; IC50 [3, 21]: 856 ± 22 µM; IC50 [3, 22]: > 2000 µM
